{
  "source": "patent US20080280810A1",
  "about": "“PEPTIDES HAVING AFFINITY FOR BODY SURFACES” (priority 2006, published 2008)",
  "key": {"[1]": {"experiment": "Color retention after shampoo treatment, peptide as sealant with HC Blue 26 dye", "parameters": "species or system human", "settings": "0.50 wt % HC Blue 26, peptide 0.25 wt %, 90 min contact, after 6 shampoo treatments; dye alone 25.75", "method": "The peptides used in this Example were prepared as described in Examples 1 and 2. The color retention was quantified using a spectrophotometric measurement technique. A peptide given as SEQ ID NO:41 or SEQ ID NO:42 (38 mg), produced via fermentation as described in Examples 1 and 2, was added to 15 g of an aqueous 0.50 wt % solution of HC Blue 26 (Aldrich) and the solution was allowed to stir for 1 h. A natural white hair tress (1 cm wide, potted, International Hair Importers & Products Inc., Bellerose, N.Y.) was inserted into a 15 mm×125 mm test tube and 13 mL of the peptide/dye mixture was injected into the test tube. The hair tress was immersed in contact with the colorant solution for 90 min and the colorant solution was agitated using a magnetic stirrer. The tress was removed, allowed to drip dry, and then air dried for 30 min. The hair tress was then subjected to a water rinse using copious amounts of deionized water, followed by a shampoo treatment with embrocation for 30 seconds. The shampoo treatment involved the application of Pantene Pro-V Sheer Volume shampoo (Proctor & Gamble, Cincinnati, Ohio) to the hair as follows. […] The color intensity after the shampoo was measured as described in Examples 4-7."}, "[2]": {"experiment": "HPLC analysis of peptide uptake by hair", "format": "binding, human", "settings": "no dye; for % Uptake time = 0 min / % Uptake time = 30 min / % Uptake time = 60 min: 20 mM Tris pH 7.2, 0.15 M NaCl, room temperature, peptide 0.1 mg/mL (IB5A, A5) or 0.05 mg/mL (HC 71, HC 74); for uptake onto hair compared with the same peptide without the charged groups (in words): HC 71 vs IB5, HC 74 vs A5", "method": "The purpose of this Example was to compare the speed of uptake by measuring the amount of various peptides including peptides of the invention bound to hair at different time points using a high performance liquid chromatography (HPLC) method. The peptides, HC 71, HC 74, IB5 (the hair-binding peptide sequence in HC 71), and A5 (the hair-binding peptide sequence in HC 74), were dissolved in 10 mL of 20 mM Tris, pH 7.2 buffer containing 0.15 M NaCl to give the peptide concentrations shown in Table 11. Natural white hair, 0.54 g, (International Hair Importers & Products Inc., Bellerose, N.Y.) was pre-equilibrated with 10 mL of Tris buffer for 30 min with mixing at room temperature. Then, the buffer was drained from the hair and 10 mL of one of the peptide solutions was added. The hair was incubated with the peptide solution at room temperature without mixing and samples were taken at 0, 30 and 60 min for HPLC analysis. For peptide uptake measurements in the presence of Acid Red 33 dye, the peptide solution was mixed 1:1 with an aqueous solution of the dye (0.5 wt %). Natural white hair (0.65 g) pre-wet with deionized water, was added to the peptide solutions and the solutions were incubated at room temperature without mixing. Samples were taken at time 0, 30, and 60 min for analysis by HPLC. The samples were analyzed using HPLC to determine the concentration of the peptide remaining in solution, and by difference, the amount of peptide taken up by the hair. The HPLC analysis was done using an Agilent liquid chromatograph (Agilent Technologies Inc., Wilmington, Del.) with a 5 μm Zorbax Eclipse XDB-C18 column (Agilent Technologies Inc.). The sample was diluted with distilled water containing 0.1% trifluoroacetic acid (typically a 10-fold dilution), and 5 to 50 μL was injected using a 100 μL injection loop. A solvent gradient elution was used with two solvents: Solvent A, consisting of acetonitrile with 0.1% aqueous trifluoracetic acid, and Solvent B, consisting of water with 0.1% trifluoroacetic acid. The gradient was from 10% acetonitrile to 80% acetonitrile at a rate of 1%/min over a period of 70 min. The flow rate was 1.25 mL/min. Detection was done with a photodiode array detector at 218 nm, 230 nm, and 278 nm."}},
  "data": [
    {"substance": "P-EQISGSLVAAPW-KRKRK-D (PEQISGSLVAAPWKRKRKD; Peptide having affinity for hair) [HC 74]", "values": [
      {"measurement": "Delta E", "setting": "[1]", "value": 30.36},
      {"measurement": "% Uptake time = 0 min", "setting": "[2]", "value": 0, "unit": "%"},
      {"measurement": "% Uptake time = 30 min", "setting": "[2]", "value": 22, "unit": "%"},
      {"measurement": "% Uptake time = 60 min", "setting": "[2]", "value": 27, "unit": "%"},
      {"measurement": "uptake onto hair compared with the same peptide without the charged groups (in words)", "setting": "[2]", "value": "significantly faster uptake onto hair"}
    ]},
    {"substance": "P-TPPELLHGAPRS-KRKRK-D (PTPPELLHGAPRSKRKRKD; Peptide having affinity for hair) [HC 71]", "values": [
      {"measurement": "Delta E", "setting": "[1]", "value": 27.83},
      {"measurement": "% Uptake time = 0 min", "setting": "[2]", "value": 0, "unit": "%"},
      {"measurement": "% Uptake time = 30 min", "setting": "[2]", "value": 69, "unit": "%"},
      {"measurement": "% Uptake time = 60 min", "setting": "[2]", "value": 75, "unit": "%"},
      {"measurement": "uptake onto hair compared with the same peptide without the charged groups (in words)", "setting": "[2]", "value": "significantly faster uptake onto hair"}
    ]}
  ]
}
